# Patent US20130150346A1, “Use of FAAH Inhibitors for Treating Parkinson's Disease and Restless Legs Syndrome” (Ironwood Pharmaceutical, Inc., priority 2010, published 2013)
# How the values were obtained:
# MPTP-lesioned marmosets [1] = test: Motor activity (passive infra-red sensors: total activity, high activity counts and time) in MPTP-lesioned marmosets; type: in vivo, common marmosets (Callithrix jacchus)
# Protocol: (§1) Six common marmosets (Callithrix jacchus; female; weight, 350-500 g (Harlan, Madison, Wis., USA)) were kept under conditions of controlled temperature (25±2° C.) and a 12-hour light/dark cycle (lights on 6:30 a.m.). Animals were group housed and had access to food, fresh-fruit supplements and water ad libitum and their home cage environment was enriched with primate toys, perches and auditory stimuli. Prior to start of studies, animals were acclimatized to handling, blood collection and administration of treatments (oral syringe feeding and subcutaneous injection) as well as transfer to observation cages for assessment of behavior. A parkinsonian syndrome was induced by once-daily subcutaneous administration of MPTP hydrochloride (Sigma, Canada; 2 mg/kg base concentration in 0.9% saline) for 5 consecutive days. Following this, animals were allowed to recover for 12 weeks to allow parkinsonian symptoms to develop and stabilize. […] Treatment-related complications including dyskinesia and psychosis-like behaviors were evoked by twice-daily treatment with L-DOPA p.o. (as Prolopa®, Roche Canada, Ontario, equivalent to 15 mg/kg L-DOPA and 3.5 mg/kg benserazide) for a minimum of 30 days. […] Disord. 21:839-846; Visanji et al. (2008) Mov. Disord. 23:1922-1925; Visanji et al (2009) Neurobiol Dis. 35: 184-192]. After this time, the animals were used in several studies to evaluate potential anti-parkinsonian and anti-dyskinetic agents. A minimum period of two weeks was allowed between completing any prior study and commencing this study, a period in excess of ten half-lives since administration of any previously employed experimental drug. Throughout the course of the study, on days not requiring plasma sampling or behavioral observations, animals were treated once daily with oral L-DOPA therapy, given at 10:00 a.m. to maintain stable levels of complications. Marmosets treated with MPTP as described in this example are referred to as MPTP-lesioned marmosets.
# (§2) To assess the effect of treatment on plasma FAAH substrate level, total activity, high activity time and count, data were analyzed using a parametric repeated-measures (RM) 1-way analysis of variance (ANOVA) followed by a Student Newman-Keuls Multiple Comparison post hoc test. To assess the effect of treatment on plasma L-DOPA level a paired, two-tailed t-test was used. All FAAH (AEA, OEA, PEA) subbstrate and L-DOPA plasma level data and activity data are presented as the group mean and SEM For measures of parkinsonian disability, dyskinesia and psychosis, data were analyzed via Friedman's test with Dunn's Multiple Comparison post hoc test. […] In all cases, p<0.05 was taken to represent a significant difference.
# (§3) MPTP hydrochloride (Sigma, Canada) was dissolved in 0.9% NaCl sterile solution to a concentration of 0.2 mg/ml (freebase) and administered at 1 ml/kg. Maintenance L-DOPA, administered as Prolopa® capsules (Roche, Mississauga, ON, Canada) containing 50 mg L-DOPA and 12.5 mg benserazide (freebase) was dissolved in Gatorade sports beverage (The Gatorade Company, Chicago, Ill.) prior to oral administration by syringe at a volume of 10 ml/kg. On days of behavioral assessment, L-DOPA (20 mg/kg, freebase) was prepared from the methyl ester form (Sigma, Canada) in combination with benserazide hydrochloride (5 mg/kg, freebase, Sigma, Canada) dissolved in 0.9% sterile saline containing 0.1% ascorbate (Sigma, Canada) and 0.05% absolute ethanol. URB597 (Cayman Chemical, Ann Arbor, Mich.) was formulated in a vehicle containing 50% corn oil (Professional Compounding Centers of America (PCCA), Houston, Tex.) and 50% nutritional drink Ensure™ (Abbott Nutrition, Chicago, Ill.) to make the suspension palatable for marmoset oral dosing. Requisite amounts of URB597 were weighed into sterile 50 ml polypropylene tubes (for the 3, 10, 30 and 60 mg/kg doses, 12, 40, 120 and 240 mg were weighed respectively). Then, 10 ml Corn oil was added and mixed until homogenous.
# MPTP-lesioned marmosets [2] = test: Rating of parkinsonian disability, dyskinesia and psychosis in MPTP-lesioned marmosets; type: in vivo, common marmosets (Callithrix jacchus); settings: L-DOPA 20 mg/kg s.c. alone, summed 2-4 h
# Protocol: as §1, §2, §3
# MPTP-lesioned macaques = test: Motor activity (total activity, high activity time and counts) in MPTP-lesioned macaques treated with URB597 and L-DOPA; type: in vivo, cynomolgus monkeys (Macaca fascicularis)
# [3] = L-DOPA 20 mg/kg s.c. alone, 2-4 h, mean±SEM, n=6
# [4] = L-DOPA 20 mg/kg s.c. alone, 2-4 h, p<0.001
# [5] = L-DOPA 20 mg/kg s.c. alone, 2-4 h, p<0.05
smiles,measurement,setting,value
"N[C@@H](Cc1ccc(O)c(O)c1)C(=O)O [L-DOPA, 3,4-dihydroxyphenylalanine]",total activity counts,"MPTP-lesioned marmosets [1]; L-DOPA 20 mg/kg s.c. alone (vehicle p.o.), peak dose period 2-4 h, mean±SEM, n=6",2782±682 counts
same,high activity counts,MPTP-lesioned marmosets [1]; [3],2170±778 counts
same,high activity time,MPTP-lesioned marmosets [1]; [3],53.3 ± 15.2 min
same,"increase in high activity time compared to normal, non-MPTP-lesioned animals",MPTP-lesioned marmosets [1]; [4],167%
same,"increase in total activity compared to vehicle (s.c.)-treated, MPTP-lesioned animals",MPTP-lesioned marmosets [1]; [4],379%
same,"increase in high activity counts compared to normal, non-MPTP-lesioned animals",MPTP-lesioned marmosets [1]; [5],120%
same,"increase in total activity compared to non-treated, non-MPTP-lesioned (normal) animals",MPTP-lesioned marmosets [1]; [5],77%
same,period following drug administration in which total activity was significantly increased compared to vehicle (s.c.)-treated animals,"MPTP-lesioned marmosets [1]; L-DOPA 20 mg/kg s.c. alone, 6 h time course, 30 min intervals",3.5 h
same,psychosis score (median),"MPTP-lesioned marmosets [2]; IQR 0-0 as printed, n=6",0
same,dyskinesia score (median),"MPTP-lesioned marmosets [2]; IQR 10-29, n=6",20
same,parkinsonian disability score (median),"MPTP-lesioned marmosets [2]; maximum 432, IQR 57-111, n=6",80
same,"total activity counts, high activity time and counts compared to normal, unlesioned macaques","MPTP-lesioned macaques; L-DOPA p.o. (30 to 45 mg/kg), 1 to 3.5 hrs after administration",higher
same,"total activity counts, high activity time and high activity counts compared to normal macaques","MPTP-lesioned macaques; L-DOPA p.o. alone, between 2 and 3 h after L-DOPA",significantly higher
